The record followed here is patent US20060008849A1, “Methods for measuring chloride channel conductivity” (priority 2004, published 2006).

One assay has as its target T1, human GABAA channel (UniProt P18508+P28472+P62813).
T1 construct: host or cells: ATCC CRL-2029 (WSS-1, HEK293-derived, by own knowledge)
The experiment in a line: Sandell-Kolthoff (SK) assay on the outwardly rectifying GABAA receptor (iodide efflux). The class given is cell-based. The settings on record: IC50, decrease of GABAA channel conductivity. As for the experimental part: In addition, the iodine loading buffer consisting of 150 mM NaI, 2 mM CaCl2, 0.8 mM NaH2PO4, 1 mM of MgCl2, and 5 mM of IK, 2% FBS (# 35-010-AV, CELLGRO, VA) pH7.4, was prepared by mixing and dissolving each described component into purified water, and adjusting the pH accordingly.
Cell line expressing human GABAA (Adenovirus type) was obtained from the American Type Culture Collection (ATCC, Cat No. CRL-2029). Cells were grown in supplemented DMEM medium consisting of DMEM medium (#10-017-CV, CELLGRO, VA), 4 mM L-glutamine, 1.5 g/L sodium bicarbonate, 4.5 g/L glucose, 1.0 mM sodium pyruvate, and 10% fetal bovine serum (# 35-010-AV, CELLGRO, VA)
Cells in supplemented DMEM medium (200 μl, approx. 250,000 cells/ml) were added to each well of a D-lysine coated 96-well plate (Corning, Cat No. 3667), and were incubated overnight in a tissue culture incubator at 37° C. under 90% air/10% CO2. Then, the supplemented DMEM medium was removed with a multichannel pipettor, and 200 μl iodine-loading buffer was added to each well with Rapid Plate™ (Zymark, MA). Cells were incubated for 2-4 hours at 37° C. under 90% air/10% CO2, and were subsequently washed with phosphate buffer saline (DPBS, Invitrogen, CA), or culture medium. […] The amount of I^− in the lysed cells was measured by the SK assay procedure described in Example 1.
IC50s were calculated with IDBS XL-fit model 205 (IDBS, UK).

In the next assay the test system is human CFTR channel. The experiment in a line: Sandell-Kolthoff (SK) assay on the outwardly rectifying CFTR channel, HTB-79 cells. The class given is cell-based. On the procedure:
HTB-79 cell line intrinsically expressing the human CFTR channel was obtained from ATCC. The CRL-1918 cell line, having a defective CFTR channel, was also obtained from ATCC. Cells were grown in Iscove's modified Dulbecco's medium consisting of Iscove's modified medium (CELLGRO, VA) and 4 mM L-glutamine, 1.5 g/L sodium bicarbonate, and 20% FBS (CELLGRO, VA). HTB-79 cells in Iscove's modified Dulbecco's medium (200 μl, approx. 500,000 cells/ml) were added to each well of a costar 96-well plate (Corning Costar, NY), and were incubated overnight in a tissue culture incubator at 37° C. under 90% air/5% CO2. Then, the Iscove's modified Dulbecco's medium was removed and 200 μl of iodine-loading buffer was added to each well of the plate. Cells were incubated for 2-4 hours at 37° C. under 90% air/5% CO2 and washed with DPBS (Invitrogen, CA) or culture medium. DPBS (100-200 μl) was added to each well. […] After the cells were incubated at room temperature for an additional 5 minutes, they were separated from the suspending buffer, and were lysed with 100 μl of cell lysis buffer (1% Triton X-100). The amount of I^− in the lysed cells was measured by the SK assay procedure described in Example 1. […] Forskolin stimulated adenylate cyclase activity resulting in increased level of cAMP, which in turn activated CFTR channel.

T1 sequence (P62813 28-455): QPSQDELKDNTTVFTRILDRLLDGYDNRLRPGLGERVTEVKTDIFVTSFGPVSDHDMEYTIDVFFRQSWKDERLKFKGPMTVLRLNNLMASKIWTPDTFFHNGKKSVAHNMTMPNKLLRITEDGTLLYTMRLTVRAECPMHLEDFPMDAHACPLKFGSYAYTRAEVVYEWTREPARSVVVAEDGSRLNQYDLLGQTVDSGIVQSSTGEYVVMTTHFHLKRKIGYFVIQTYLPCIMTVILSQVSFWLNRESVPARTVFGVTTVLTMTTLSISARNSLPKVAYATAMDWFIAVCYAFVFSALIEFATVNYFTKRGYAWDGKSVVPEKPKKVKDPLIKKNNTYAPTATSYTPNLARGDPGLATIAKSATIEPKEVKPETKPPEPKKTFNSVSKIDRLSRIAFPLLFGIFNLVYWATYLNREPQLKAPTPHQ
T1 sequence (P28472 26-473): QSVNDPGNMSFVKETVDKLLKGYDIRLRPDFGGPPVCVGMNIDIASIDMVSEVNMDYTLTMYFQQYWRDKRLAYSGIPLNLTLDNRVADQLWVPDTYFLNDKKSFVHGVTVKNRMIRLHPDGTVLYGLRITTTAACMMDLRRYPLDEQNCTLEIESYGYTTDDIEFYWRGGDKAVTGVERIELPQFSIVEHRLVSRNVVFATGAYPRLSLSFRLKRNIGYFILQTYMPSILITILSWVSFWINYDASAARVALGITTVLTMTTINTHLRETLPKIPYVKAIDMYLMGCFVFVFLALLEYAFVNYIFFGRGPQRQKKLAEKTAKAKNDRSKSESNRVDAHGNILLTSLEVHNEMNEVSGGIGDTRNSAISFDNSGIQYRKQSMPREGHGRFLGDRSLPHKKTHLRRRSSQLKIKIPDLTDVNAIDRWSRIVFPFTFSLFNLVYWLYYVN
T1 sequence (P18508 39-466): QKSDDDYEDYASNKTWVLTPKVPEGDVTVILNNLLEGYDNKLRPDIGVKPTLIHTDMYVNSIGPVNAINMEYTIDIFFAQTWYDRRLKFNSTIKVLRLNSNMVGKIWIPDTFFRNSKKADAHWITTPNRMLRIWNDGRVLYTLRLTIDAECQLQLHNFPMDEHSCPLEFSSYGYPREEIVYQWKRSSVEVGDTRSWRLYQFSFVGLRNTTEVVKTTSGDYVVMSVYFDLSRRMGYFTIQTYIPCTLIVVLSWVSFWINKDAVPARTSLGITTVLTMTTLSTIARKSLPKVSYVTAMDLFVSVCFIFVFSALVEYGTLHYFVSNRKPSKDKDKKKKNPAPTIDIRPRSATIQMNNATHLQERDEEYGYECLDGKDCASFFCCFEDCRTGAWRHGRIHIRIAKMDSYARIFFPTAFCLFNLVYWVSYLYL

On to `CN1CCc2cc3c(cc2[C@H]1[C@@H]1OC(=O)c2c1ccc1c2OCO1)OCO3` [Bicuculline], for which the IC50 on human GABAA channel (in the presence of 30 μM GABA) is around 1000 nM; at human GABAA channel (in the presence of 300 μM GABA), around 50000 nM.

Consider `C=C[C@@]1(C)CC(=O)[C@]2(O)[C@@]3(C)[C@@H](O)CCC(C)(C)[C@@H]3[C@H](O)[C@H](OC(C)=O)[C@@]2(C)O1` [Forskolin], for which the “lowest concentration at which activation of CFTR was detected” value with human CFTR channel is recorded as 300 nM. In addition, the 50% effective concentration (EC50) in the assay on human CFTR channel (one-half of activity with 100 μM Forskolin, read-out: EC50 for Forskolin, activation of CFTR channel) was 1000 nM.
